Experimental data reported in article PMC8486872, “A rational blueprint for the design of chemically-controlled protein switches” (Nature Communications, 2021).
Values joined by “and” are separate entries in the source; they are usually repeats but may differ in a detail not shown here. Equal values may be shown once.

Tests used:
HEK293T cells [1] = test: CCK8 cell viability assay; type: cell-based; settings: for Normalization of Supplementary Figure5a (CCK8 absorbance): in % (unit assumed); for Absorbance at 450nm (CCK8 colormetric assay): Suppl Fig 5a
Procedure: A cell counting kit-8 (CCK-8) assay (Sigma) was used to measure the cytotoxicity of three drugs on HEK293T cells. 10,000 cells per well were pre-seeded into 96 well plates in 100 µl complete culture medium. The culture medium was changed into drug containing medium with drug concentrations of 0 µM (0.1% DMSO),1 µM, 5 µM and 10 µM. After 24 h drug incubation, 10 µl WST-8 solution was added to each well for 4 h incubation under standard conditions. The absorbance at 450 nm was determined by a multiplate reader (Tecan Infinite 500).
Supplementary Figure 5: Drug toxicity assessment. a) Drug effects on cell viability of HEK293T cells. HEK293T cells were added different concentrations of drugs for an incubation period of 24 hours. WST-8 was added 24 h after drug incubation and the absorbance at 450 nm was measured 4 h later. […]

HEK293T cells [2] = test: Effect of drugs on protein production (Luciferase reporter, constitutive Gal4-Rel65); type: cell-based; settings: Suppl Fig 5b
Procedure: Supplementary Figure 5: Drug toxicity assessment. […]
HEK293T cells. The HEK293T cells were transfected with the Luciferase reporter and constitutive Gal4-Rel65 expression plasmid (pCMV-Gal4-Rel65-pA). Drugs were added to the transfected cells 24 hours post-transfection, quantification of luciferase activity 24 hours after the addition of the drugs. Each bar represents the mean of three biological replicates ± s.d overlaid with a scatter dot plot of the original […]

[3] = test system: JAK/STAT pathway SEAP expression in HEK293T cells; test: AIR-GEMS ON-switch SEAP assay; settings: Fig S11a; 100 nM Drug-2
Procedure: We fused the AIR components in the ectodomains of the GEMS and measured SEAP activity as a reporter for drug-triggered activation.
HEK293T cells were maintained in DMEM medium with 10% FBS (Gibco) and Pen/Strep (Thermo Fisher). Cells were maintained and split every two days at around 80% confluence. HEK293T cells were seeded 24 h before transfection, and transfected with the lipofectamine 3000 kit (Thermo Fisher). Plasmids were cotransfected according to the Table S7. For the drug OFF-switch experiments, drugs were added 12 h post transfection and incubated with cells for 24 h before the SEAP detection assay.
Representative data of cellular assays are presented as individual values and mean values (bars). n = 3 refers to biological replicates. All IC50/EC50 values of cellular assays (CDH-TF, CDH-GEMS, AIR-TF and AIR-GEMS) reported were calculated using four-parameter nonlinear regression ± s.d.
Bcl2 mutants were cloned into the AIR-GEMS

[4] = test system: SEAP expression in HEK293T cells; test: Background signal of SEAP reporter and single-construct controls; type: cell-based
Procedure: Supplementary Figure 7: Dose-dependence and reversibility characterization of CDHs in CDH- […]
transfected with SEAP reporter S132 and treated with 1 µM Drugs 12 hours post transfection.
Quantification of SEAP was performed 24 hours after drug treatment. b) Drug specificity of CDH-TFs. […]
Background signal of SEAP reporter in the absence of the CDH-GEMS system. HEK293T cells were transfected with pLS566 SEAP reporter plasmids and treated with drugs. Quantification of SEAP was performed 24 hours post drug treatment. f) SEAP activity upon transfecting single or paired […]
Quantification of SEAP activity of three CDHs with DMSO (dark color), specific (light color) and unspecific drug treatment (gray). […]
(culture medium) in panels of b, c, f and g were collected every 12 hours. Values were normalized to zero based on the SEAP expression at time 0. a, b, e, f, g) The bar charts show the mean ± s.d. of n = 3 biologically independent samples overlaid with a scatter dot plot of the original data points.

[5] = target: T1, LD3 in the presence of Drug-1 (Homo sapiens, UniProt Q07817, DEL45-84/F105I/R102E); test: SPR pre-screening and competition of Drug-1 resistant Bcl-XL mutants binding LD3; settings: 5 µM receptor mixed with 10 µM Drug-1
T1 construct: 6xHis (N); made in house; host or cells: E. coli BL21(DE3)
Procedure: Supplementary Figure 10: Biophysical and cellular characterization of designed Drug-1- […]
a) Pre-screening of Drug-1 resistant Bcl-XL mutants by SPR. 5 µM of Bcl-XL and five mutants were mixed with 10 µM of Drug-1 and injected over the LD3 immobilized chip to analyse the binding response. […]
dilutions of Drug-1 were pre-mixed with 4 µM LD3 and injected over iBcl-XL_v3 immobilized chip to collect the response. c) Dissociation constant measurement of iBcl-XL_v3 and LD3. Sensorgrams are in black dashed curves and the fitted curves in solid red lines. Kd was using a 1:1 binding model. d) […]
normalized to the positive control (DMSO group). […]

mdm2 = mdm2 (Homo sapiens, UniProt Q00987); set-up: method as in PMID 26768531; settings: read-out: reported binding affinity to mdm2; cited from earlier work
Chain of mdm2 (Q00987 26-109 limits assumed): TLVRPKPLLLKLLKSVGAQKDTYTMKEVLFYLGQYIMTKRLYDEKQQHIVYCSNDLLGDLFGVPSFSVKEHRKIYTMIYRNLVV

T1 sequence (Q07817 with tags, fused parts or gaps DEL45-84/R102E/F105I limits assumed): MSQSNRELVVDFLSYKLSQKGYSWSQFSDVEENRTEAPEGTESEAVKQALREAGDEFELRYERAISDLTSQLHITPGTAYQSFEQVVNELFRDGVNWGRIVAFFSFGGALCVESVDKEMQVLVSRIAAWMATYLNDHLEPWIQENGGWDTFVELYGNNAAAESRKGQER

## CN(C)CC#Cc1ccc(OCCCc2sc(N3CCc4cccc(C(=O)Nc5nc6ccccc6s5)c4C3)nc2C(=O)O)c(F)c1 [Drug1]
HEK293T cells [1]; 1 µM
  Normalization of Supplementary Figure5a (CCK8 absorbance): 107.788 and 102.052 and 84.2322
  Absorbance at 450nm (CCK8 colormetric assay): 1.2364 and 1.1706 and 0.9662
HEK293T cells [1]; 5 µM
  Normalization of Supplementary Figure5a (CCK8 absorbance): 106.001 and 108.808 and 85.1912
  Absorbance at 450nm (CCK8 colormetric assay): 1.2159 and 1.2481 and 0.9772
HEK293T cells [1]; 10 µM
  Normalization of Supplementary Figure5a (CCK8 absorbance): 101.677 and 96.2978 and 81.5907
  Absorbance at 450nm (CCK8 colormetric assay): 1.1663 and 1.1046 and 0.9359
HEK293T cells [2]; 1 µM
  Luciferase production (luminescence): 298584 and 267400 and 264776
HEK293T cells [2]; 5 µM
  Luciferase production (luminescence): 259902 and 193284 and 231257
HEK293T cells [2]; 10 µM
  Luciferase production (luminescence): 268448 and 250247 and 248473

## CC1(C)CCC(CN2CCN(c3ccc(C(=O)NS(=O)(=O)c4ccc(NCC5CCOCC5)c([N+](=O)[O-])c4)c(Oc4cnc5[nH]ccc5c4)c3)CC2)=C(c2ccc(Cl)cc2)C1 [Drug2]
HEK293T cells [1]; 1 µM
  Normalization of Supplementary Figure5a (CCK8 absorbance): 91.0979 and 90.3939 and 94.3325
  Absorbance at 450nm (CCK8 colormetric assay): 2.3291 and 2.3111 and 2.4118
HEK293T cells [1]; 5 µM
  Normalization of Supplementary Figure5a (CCK8 absorbance): 94.2973 and 98.0561 and 96.7732
  Absorbance at 450nm (CCK8 colormetric assay): 2.4109 and 2.507 and 2.4742
HEK293T cells [1]; 10 µM
  Normalization of Supplementary Figure5a (CCK8 absorbance): 95.7875 and 97.7823 and 95.6546
  Absorbance at 450nm (CCK8 colormetric assay): 2.449 and 2.5 and 2.4456
HEK293T cells [2]; 1 µM
  Luciferase production (luminescence): 239858 and 221880 and 230049
HEK293T cells [2]; 5 µM
  Luciferase production (luminescence): 235551 and 211876 and 214947
HEK293T cells [2]; 10 µM
  Luciferase production (luminescence): 249510 and 226877 and 232289

## Bcl2
[3]
  Reporter signal, 100 nM Drug-2: 0.7857 and 0.8309 and 0.7087
[4]; Suppl Fig 7f, CDH2
  Reporter signal, single constructs vs pair: 12.2479 and 10.8467 and 9.94
[4]; Suppl Fig 7g (so in the source), CDH2
  Reporter signal, single constructs vs pair: 12.2479 and 10.8467 and 9.94

## Bcl-XL: wildtype drug receptor protein of CDH-1
[5]
  inhibition by Drug-1 of binding to LD3 immobilized chip: complete inhibition
[4]; Suppl Fig 7f, CDH1
  Reporter signal, single constructs vs pair: 17.1033 and 16.0472 and 16.2645
[4]; Suppl Fig 7g (so in the source), CDH1
  Reporter signal, single constructs vs pair: 17.1033 and 16.0472 and 16.2645

## stapled p53 peptide: stapled p53 peptide (PDB 5afg) used as input peptide motif (LTFAEYWAQLAS)
mdm2
  Kd: 0.012 ± 0.003 µM
